# Source: PubChem BioAssay AID1963839 (Molecular Pharmacology Branch, DTP, NCI, 2024)
# Several values for one entry are separate records, joined by “and”; a condition that tells them apart may be missing. Equal entries are not always repeated.
# System: 817829-284-R-J1-PDC complex spheroid viability
# Assay: Anticancer human tumor 817829-284-R-J1-PDC patient-derived colon adenocarcinoma cell line growth inhibition [POLQ]
# Settings: for viability, T/C: stronger effect = lower value
# Description: Multicellular complex tumor spheroid response to Polymerase (POL) inhibitors (novobiocin, ART-558, RP6685) in combination with a variety of drugs and investigational agents in selected tumor cell lines
# The POL inhibitors (novobiocin, ART-558, and RP6685) were evaluated both individually and in combination with standard of care and investigational anticancer small molecules within a complex spheroid model of solid tumors. . Complex spheroids include a stromal component modeled by human endothelial cells (HUVEC) and fibroblasts modeled by human mesenchymal stem cells (MSCs). The concentration ranges selected for each drug and investigational agent were based upon clinically achievable concentrations if the clinical Cmax of the agent was known.
# Compounds. The drugs and investigational agents: novobiocin (NSC847541), ART-558 (NSC835418), RP-6685 (NSC848927), peposertib (NSC802822), ceralasertib (NSC780249), elimusertib (NSC800525), camonsertib (NSC841442), AZD-1390 (NSC803789), olaparib (NSC753686), talazoparib (NSC767125), rucaparib (NSC756644), sotorasib (NSC818433), MRTX-1133 (NSC836407), SN-38 (NSC673596), topotecan (NSC609699), epotoside (NSC141540), doxorubicin (NSC123127), gemcitabine (NSC613327), 5-fluorouracil (NSC19893), paclitaxel (NSC125973), vemurafenib (NSC761431), MSA-2 (NSC828583), SN-011 (NSC837082), adavosertib (NSC754352), prexasertib (NSC758257), carboplatin (NSC241240) and oxaliplatin (NSC266046), were obtained from the National Cancer Institute (NCI) Developmental Therapeutics Program Chemical Repository (21). The FDA-approved anticancer drug set is available from the Developmental Therapeutics Program at https://dtp.cancer.gov/organization/dscb/obtaining/. […] The stock solutions were prepared in dimethyl sulfoxide (DMSO, Sigma-Aldrich, St. Louis, MO, cat. D2650), except for the platinum compounds which were prepared in saline (Quality Biological, Gaithersburg, MD, cat. 114-055-101), at 800-fold the tested concentration and stored at -70 degrees C prior to their use. All drugs and investigational agents were tested over a range starting from a high concentration at or near the clinical Cmax and decreasing in half-log increments. If the clinical Cmax for an agent had not been determined, the highest concentration tested was 10 microM, except for SN-38, which was tested at a high concentration of 1 microM.
# Cell Culture. All cells were maintained in an incubator at 37 degrees C and 5% CO2 with 95% humidity. The PDC lines were cultured according to standard operating procedures established by the NCI PDMR (https://pdmr.cancer.gov). Table 3 of the manuscript, lists the cell lines along with the number of the three cell types plated to form the mct-spheroids and media for tumor cell growth. After thawing, all PDC lines, except 997537-175-T-J1-PDC and 415267-285-R-J2-PDC, were cultured in Matrigel-coated flasks prepared with a working solution of 1X Ham's F-12 nutrient mix, without supplementation (Thermo Fisher Scientific, cat. 11765054), 100 U/mL penicillin-streptomycin (Thermo Fisher Scientific, cat. 15140122), and 2.5% Matrigel (Corning Inc., Corning, NY, cat. 354248) for the first three passages. The two PDC lines 997537-175-T-J1-PDC and 415267-285-R-J2-PDC were cultured on uncoated flasks. The 857933-349-R-J2-PDC line was cultured in 6C/Colon 1B media containing advanced DMEM/F-12 (Thermo Fisher Scientific, cat. 12634028), 10 mM HEPES (Thermo Fisher Scientific, cat. 15630080), 1X GlutaMAX supplement (Thermo Fisher Scientific, cat. 35050061), 0.1 mg/mL primocin (InvivoGen, San Diego, CA, cat. ant-pm-2), 10% defined fetal bovine serum, heat inactivated (HyClone Laboratories Inc., Logan, UT, cat. SH30070.03HI), 50% L-WRN conditioned media (ATCC, cat. CRL-3276), 1.25 mM N-Acetyl-L-cysteine (Sigma-Aldrich, cat. A9165), 10 mM nicotinamide (Sigma-Aldrich, cat. N0636), 1X B-27 supplement (Thermo Fisher Scientific, cat. 17504044), 1X N-2 supplement (Thermo Fisher Scientific, cat. […]
# 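Note: spheroids exposed to compounds for 7 days.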
# 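Throughout, for viability, T/C: 100% = DMSO vehicle-treated spheroids.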
compound,measurement,setting,value
COC1C(OC(N)=O)C(O)C(Oc2ccc3c(O)c(NC(=O)c4ccc(O)c(CC=C(C)C)c4)c(=O)oc3c2C)OC1(C)C (stereo not drawn),IC50,"compound alone, run of 11/27/2023",> 10000 nM
CC1COCCN1c1cc(-c2ccnn2C)c2ccnc(-c3ccn[nH]3)c2n1 (stereo not drawn),"viability, T/C",compound 0.0316 µM,33.8% and 33.3% and 74.6%
same,"viability, T/C",compound 0.1 µM,11.3% and 12.5% (2×)
same,"viability, T/C",compound 0.316 µM,7.44% and 7.37% and 5.59%
same,"viability, T/C",compound 1 µM,4.37% and 3.99% and 4.03%
same,"viability, T/C",compound 3.16 µM,3.67% and 2.87% and 3.57%
same,"viability, T/C",compound 10 µM,2.72% and 2.9% and 2.76%
same,IC50,curve of compound,< 31.6 nM and 49.9 nM
CCc1cc2c(N3CCc4c(cc(Cn5ccnc5)cc4-c4cn(C)nc4C(F)(F)F)C3=O)cc(C)nc2c(OC)n1 + Cc1cccc(N(C)C(=O)C2C(O)CCN2c2nc(C)cc(C(F)(F)F)c2C#N)c1,IC50,"curve of first compound, second compound 0.0316 µM",1780 nM
same,IC50,"curve of first compound, second compound 0.1 µM",2490 nM
same,IC50,"curve of first compound, second compound 0.316 µM",1180 nM
same,IC50,"curve of first compound, second compound 1 µM",1630 nM
same,IC50,"curve of first compound, second compound 3.16 µM",2680 nM
same,IC50,"curve of first compound, second compound 10 µM",1360 nM
same,"viability, T/C","second compound 0.0316 µM, first compound 0.0316 µM",85.3%
same,"viability, T/C","second compound 0.0316 µM, first compound 0.1 µM",65.6%
same,"viability, T/C","second compound 0.0316 µM, first compound 0.316 µM",68.5%
same,"viability, T/C","second compound 0.0316 µM, first compound 1 µM",59.6%
same,"viability, T/C","second compound 0.0316 µM, first compound 3.16 µM",41.8%
same,"viability, T/C","second compound 0.0316 µM, first compound 10 µM",32.9%
same,"viability, T/C","second compound 0.1 µM, first compound 0.0316 µM",88.9%
same,"viability, T/C","second compound 0.1 µM, first compound 0.1 µM",77.5%
same,"viability, T/C","second compound 0.1 µM, first compound 0.316 µM",62.2%
same,"viability, T/C","second compound 0.1 µM, first compound 1 µM",73.8%
same,"viability, T/C","second compound 0.1 µM, first compound 3.16 µM",43.6%
same,"viability, T/C","second compound 0.1 µM, first compound 10 µM",28.8%
same,"viability, T/C","second compound 0.316 µM, first compound 0.0316 µM",72%
same,"viability, T/C","second compound 0.316 µM, first compound 0.1 µM",83.9%
same,"viability, T/C","second compound 0.316 µM, first compound 0.316 µM",94%
same,"viability, T/C","second compound 0.316 µM, first compound 1 µM",53.1%
same,"viability, T/C","second compound 0.316 µM, first compound 3.16 µM",38.8%
same,"viability, T/C","second compound 0.316 µM, first compound 10 µM",22.9%
same,"viability, T/C","second compound 1 µM, first compound 0.0316 µM",84.1%
same,"viability, T/C","second compound 1 µM, first compound 0.1 µM",64.3%
same,"viability, T/C","second compound 1 µM, first compound 0.316 µM",81.8%
same,"viability, T/C","second compound 1 µM, first compound 1 µM",52.9%
same,"viability, T/C","second compound 1 µM, first compound 3.16 µM",43.3%
same,"viability, T/C","second compound 1 µM, first compound 10 µM",30.2%
same,"viability, T/C","second compound 3.16 µM, first compound 0.0316 µM",79.4%
same,"viability, T/C","second compound 3.16 µM, first compound 0.1 µM",87.9%
same,"viability, T/C","second compound 3.16 µM, first compound 0.316 µM",66.6%
same,"viability, T/C","second compound 3.16 µM, first compound 1 µM",59.3%
same,"viability, T/C","second compound 3.16 µM, first compound 3.16 µM",51%
same,"viability, T/C","second compound 3.16 µM, first compound 10 µM",33.8%
same,"viability, T/C","second compound 10 µM, first compound 0.0316 µM",71.4%
same,"viability, T/C","second compound 10 µM, first compound 0.1 µM",78.2%
same,"viability, T/C","second compound 10 µM, first compound 0.316 µM",66.2%
same,"viability, T/C","second compound 10 µM, first compound 1 µM",56.9%
same,"viability, T/C","second compound 10 µM, first compound 3.16 µM",34.3%
same,"viability, T/C","second compound 10 µM, first compound 10 µM",26.7%
O=C(Nc1ccc(O)c(NS(=O)(=O)c2ccc(F)cc2)c1)c1ccc(-c2ccccc2)cc1,"viability, T/C",compound 0.0316 µM,94% and 91.9% and 101%
same,"viability, T/C",compound 0.1 µM,96.5% and 104% and 103%
same,"viability, T/C",compound 0.316 µM,93.7% and 100% and 103%
same,"viability, T/C",compound 1 µM,92.4% and 99.3% and 78.3%
same,"viability, T/C",compound 3.16 µM,73.5% and 88.2% and 76.5%
same,"viability, T/C",compound 10 µM,38.7% and 41.5% and 39.8%
same,IC50,curve of compound,6880 nM and 8170 nM and 7070 nM
C=CC(=O)N1CCN(c2nc(=O)n(-c3c(C)ccnc3C(C)C)c3nc(-c4c(O)cccc4F)c(F)cc23)C(C)C1 (stereo not drawn),"viability, T/C",compound 0.0316 µM,70% and 89.9% and 113%
same,"viability, T/C",compound 0.1 µM,93.6% and 105% and 95.7%
same,"viability, T/C",compound 0.316 µM,103% and 97.2% and 99.5%
same,"viability, T/C",compound 1 µM,86.7% and 94.7% and 101%
same,"viability, T/C",compound 3.16 µM,88.8% and 90.2% and 102%
same,"viability, T/C",compound 10 µM,53% and 58.3% and 44.1%
same,IC50,curve of compound,> 10000 nM and 8900 nM
CC(=O)O[C@H]1C(=O)[C@@]2(C)[C@H]([C@H](OC(=O)c3ccccc3)[C@]3(O)C[C@H](OC(=O)[C@H](O)[C@@H](NC(=O)c4ccccc4)c4ccccc4)C(C)=C1C3(C)C)[C@]1(OC(C)=O)CO[C@@H]1C[C@@H]2O,"viability, T/C",compound 0.00949 µM,5.15% and 4.45% and 5.76%
same,"viability, T/C",compound 0.03 µM,3.94% and 3.44% and 4.19%
same,"viability, T/C",compound 0.0949 µM,3.9% and 3.92% and 5.6%
same,"viability, T/C",compound 0.3 µM,4.36% and 3.82% and 4.56%
same,"viability, T/C",compound 0.949 µM,4.81% and 4.08% and 5.15%
same,"viability, T/C",compound 3 µM,4.4% and 3.61% and 5.14%
same,IC50,curve of compound,< 9.49 nM
C#Cc1c(F)ccc2cc(O)cc(-c3ncc4c(N5CC6CCC(C5)N6)nc(OCC56CCCN5CC(F)C6)nc4c3F)c12 (stereo not drawn),"viability, T/C",compound 0.0316 µM,95.2% and 94.8% and 96%
same,"viability, T/C",compound 0.1 µM,84.6% and 98.2% and 122%
same,"viability, T/C",compound 0.316 µM,72% and 98.1% and 118%
same,"viability, T/C",compound 1 µM,88.4% and 89% and 92.8%
same,"viability, T/C",compound 3.16 µM,90.2% and 111% and 115%
same,"viability, T/C",compound 10 µM,53.8% and 102% and 54.2%
same,IC50,curve of compound,> 10000 nM
